Measurements as given in patent US20170128059A1, “METHODS AND APPARATUS FOR PREVENTION OF SURGICAL SITE INFECTIONS” (priority 2015, published 2017).

Experiments:
[1] = intravenous administration, 240 mg; cited from earlier work
[2] = system: E. coli; details: cited from earlier work
[3] = serum and wound tissue gentamicin concentration by ELISA after local delivery through the surgical device; details: E-F group
Experimental: The 7 pigs were divided into two groups each: 1. Control (n=1) where no device was used and a sham procedure was performed. 2. “Experimental-No Fluid” (E-NF) group (n=3) where the surgical device was used without any irrigation delivered through the device in order to mimic conditions with other non-irrigating surgical retractors. 3. […] The irrigation fluid was delivered via gravity drainage from an IV bag hung on a pole at a height of 6 feet, and removal of fluid from the device was achieved via wall suction into a standard surgical canister. Both the fluid delivery and fluid removal mechanisms were integrated into the surgical device via separate tubing connections. The total time of irrigation averaged approximately 4 hours.
Experimental data was collected at two time points. Time 1 was after 4 hours of simulated surgery and/or irrigation and at the time of device removal. Time 2 was 4 hours after wound closure (e.g. at the time of wound reopening).
In the E-F group, peripheral blood samples were drawn by the anesthetists at Times 1 and 2. The blood was collected in serum-separator tubes and centrifuged. […] Two 4 mm×8 mm punch biopsies at each time point were taken, homogenized, and diluted in 1 mL phosphate buffered saline (PBS). The sample was centrifuged, and the supernatant was isolated for ELISA analysis.

[4] = system: E. coli; test: minimum inhibitory concentration of gentamicin, E. coli; type: cell-based
Description: The extent of absorption of a fluid or solute into the tissue may be a function of the rate of fluid delivery, concentration of solutes (if any) in the delivered fluid, physical characteristics of the solutes (if any), the porosity of the tissue, tortuousity of the tissue, systemic absorption via the capillary bed and subsequent renal clearance, and/or the time period over which the surgical device and delivered fluid are in contact with the wound tissues. […] The minimum inhibitory concentration (16 mg/L) was reached are the wound surface in about 3 minutes of fluid delivery. […] The surgical device may thus be able to reduce microbial growth in wounds even after being removed, which may result in a lower risk of developing a surgical site infection.
The surgical device may be used to deliver a therapeutic fluid to a wound tissue to maintain a constant therapeutic concentration in the tissue. The therapeutic concentration in the tissue may be maintained for a portion of or the entire duration of the surgical procedure. The concentration of the therapeutic agent (e.g. antibiotic) may be maintained within a pre-determined range. The pre-determined concentration may depend on the type of therapeutic used as described herein. […] The therapeutic concentration may be at or above the minimum inhibitory concentration. […]

[5] = system: gram-negative bacteria present in colorectal surgeries; details: required to neutralize gram-negative bacteria present in colorectal surgeries; cited from earlier work
[6] = system: E. coli; test: acute abdominal surgical model with E. coli contamination, quantitative wound tissue culture; type: in vivo, pigs; details: E-F group
Experimental: In the gentamicin group, the degree of systemic absorption of the antibiotic was quantified.
Seven female adult pigs weighing 50-70 kg were placed under general anesthesia and monitored for the duration of the experimental protocol. The abdomen was shaved, sterilely prepped with chlorhexidine solution, and draped under sterile conditions. A 12-cm periumbilical midline incision was made and the abdominal cavity was entered. After approximately 2.5 hours of wound retraction to simulate a prototypical length of time for colonic dissection, a gentamicin-sensitive E. coli suspension at a standardized concentration of 10^9 colony-forming units (CFU) in 10 mL normal saline was dripped onto the central colon. E. coli is classified as an enteric bacteria species. […]
FIGS. 28A-28B show the locations at which two swab samples were taken just prior to device removal (e.g. at Time 1). […] Colonies were identified as E. coli, enumerated, and recorded, and the results for serial dilutions were internally validated. […] Tissue culture results were expressed as colony-forming units (CFU) per gram. […]
Quantitative culture results were expressed in mean±standard deviation (SD). Statistical comparisons of quantitative culture results were performed using the Student's t-test. Significance was determined based on a value of p<0.05.

[7] = finite-element (COMSOL) simulation of local gentamicin delivery to a retracted surgical wound; details: calculated model parameter, adipose wound tissue
Description: In order to better understand the differences between systemic delivery and local delivery of therapeutic agents, a finite-element analysis software package (COMSOL) was used to generate a three dimensional (3D) model of a retracted surgical wound with a 12 cm incision. […] The 3D model shown in FIG. 23 was modeled in a Computer Aided Design (CAD) package (Solidworks) based on the geometry of the device and the retracted wound tissue in a cadaver.
Gentamicin, a member of the aminoglycoside family, was used as the antibiotic in the model due to its prevalence in clinical use to combat the enteric, gram-negative bacteria that cause wound infections. A concentration of 240 mg/L was delivered during the simulated 4 hr surgery based on standard clinical protocols.
where Φ, D, and C are the particle flux, diffusion coefficient, and concentration, respectively. […]
The diffusion coefficients of various solutes and solvents have been experimentally obtained and published. However, for solute-solvent combinations that have not been published or experimentally determined, the molecular weight of a given solute may be correlated to the diffusion coefficient in the same solvent using a logarithmic relation. […]
The simulation was run for four hours to mimic a standard colorectal procedure and the antibiotic flux and tissue concentration was recorded at each time step.

In the case of gentamicin, the “peak tissue concentration relative to minimum inhibitory concentration” value [1] is given as 4.5 times, the “time of peak tissue concentration after administration” value [1] is given as “roughly 20 minutes” and the minimum inhibitory concentration [2] is given as 16 µg/mL. The “gentamicin concentration at the wound margins (tissue)” value ([3]; Time 1, punch biopsies of subcutaneous fat) was 0.97 ± 0.33 mg/kg, the “gentamicin concentration at the wound margins (tissue)” value ([3]; Time 2, punch biopsies of subcutaneous fat) was 0.60 ± 0.37 mg/kg and the “delivered fluid concentration (240 mg/L) relative to typical minimum inhibitory concentration of E. coli” value [4] was “about 60 time greater”. The “minimum inhibitory concentration (MIC)” value [5] was 0.003 mol/m^3, the “quantitative wound culture (E. coli) in tissue sample” value ([6]; 240 mg gentamicin sulfate in 1 L saline through device, Time 1 (device removal)) was 1.25±1.55×10^2 CFU/gm and the “quantitative wound culture (E. coli) in tissue sample” value ([6]; Time 2 (4 hours after wound closure)) was 2.08±3.01×10^2 CFU/gm. The “Effective Diffusion Coefficient” value [7] was 1.88E−6 cm^2/s.
